Assay results reported in PubChem BioAssay (NCI).
Several values for one entry are separate records, joined by “and”; a condition that tells them apart may be missing. Equal values may be shown once.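 These data come from cells grown in 96-well plates and exposed to compound for 48 hours at five concentrations. GI50 = concentration required for 50% inhibition of growth. TGI: total growth inhibition.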

What was measured:
Assay in all cases: growth of human tumour cells (NCI), 48 h
[1] = system: COLO 205 colon
[2] = system: DU-145 prostate
[3] = system: HCT-116 colon
[4] = system: HT29 colon
[5] = system: KM12 colon
[6] = system: RXF 393 renal
[7] = system: SNB-75 CNS
[8] = system: UACC-62 melanoma

Structure (SMILES)	GI50 [1]	TGI [1]	GI50 [2]	TGI [2]	GI50 [3]	TGI [3]	GI50 [4]	TGI [4]	GI50 [5]	TGI [5]	GI50 [6]	TGI [6]	GI50 [7]	TGI [7]	GI50 [8]	TGI [8]
COC1=C(OC)C(=O)C(CCCCCCCCCCO)=C(C)C1=O	19.6 µM	34 µM	7.77 µM	22.4 µM	4.46 µM	16.1 µM	14.5 µM	31.6 µM	15.1 µM	58.1 µM	10.1 µM	23.9 µM	12.1 µM	28 µM	7.57 µM	21.4 µM
CSC1=Nc2c(c(C)c(-c3ccccc3)n2COC(CO)CO)C2=NC(=O)CN12	> 100 µM	> 100 µM	> 100 µM	> 100 µM	> 100 µM	> 100 µM	> 100 µM	> 100 µM	> 100 µM	> 100 µM	> 100 µM	> 100 µM	58.9 µM	> 100 µM	> 100 µM	> 100 µM
c1ccc(C2CCCCC2)c(OCCCCCN2CCNCC2)c1	1.45 µM	3.31 µM	4.17 µM	16.2 µM	1.65 µM	4.19 µM	1.6 µM	4.9 µM	1.85 µM	4 µM	1.77 µM	4.02 µM	1.32 µM	3.54 µM	1.87 µM	3.62 µM
Cn1c(C(=O)c2cccc3ccccc23)nc2ccccc21	> 100 µM	> 100 µM	> 100 µM	> 100 µM	> 100 µM	> 100 µM	> 100 µM	> 100 µM	> 100 µM	> 100 µM	> 100 µM	> 100 µM	15.3 µM	> 100 µM	> 100 µM	> 100 µM
C=C1C(=O)O[C@H]2[C@H]1CC/C(COC(=O)NCc1c[nH]c3ccc(F)cc13)=C\CC[C@@]1(C)O[C@@H]21	1.39 µM	2.95 µM	1.08 µM	2.48 µM	0.703 µM	2.04 µM	1.07 µM	2.58 µM	3.03 µM	10.3 µM	1.53 µM	3 µM	1.33 µM	2.76 µM	1.47 µM	2.87 µM
CN1CCCC1c1cccnc1.O=C(O)c1ccccc1O.O=C([O-])c1ccccc1[OH2+].O=C([O-])c1ccccc1[OH2+].[Mn+2] (stereo not given)	> 100 µM	> 100 µM	> 100 µM	> 100 µM	> 100 µM	> 100 µM	98 µM	> 100 µM	> 100 µM	> 100 µM	> 100 µM	> 100 µM	> 100 µM	> 100 µM	> 100 µM	> 100 µM
COc1ccc(C2CC(c3ccc(N(C)C)cc3)=NN2c2ccc(S(N)(=O)=O)cc2)cc1 (stereo not given)	2.46 µM	5.49 µM	4.84 µM	> 100 µM	2.12 µM	4.77 µM	3.5 µM	10.7 µM	3.68 µM	> 100 µM	2.56 µM	7.52 µM	5.42 µM	> 100 µM	5.85 µM	> 100 µM
O=C1/C(=C/c2ccccc2O)N=C(c2ccccc2)N1c1cc(C(F)(F)F)ccc1Cl	> 100 µM	> 100 µM	43.8 µM	> 100 µM	25 µM	> 100 µM	> 100 µM	> 100 µM	8.29 µM	> 100 µM	29.9 µM	81.3 µM	18.1 µM	37.7 µM	69.3 µM	> 100 µM
CN(C)c1nc(N)c(C#N)c(C#N)c1C#N	–	> 10 µM	–	> 10 µM	–	> 10 µM	–	> 10 µM	–	> 10 µM	–	> 10 µM	–	> 10 µM	–	> 10 µM
CC1(C)[C@H](O)[C@H](F)C[C@@]2(C)Oc3ccc(C(=O)Nc4ccc5c(c4)NC(=O)C54CCN(CCCCC#N)CC4)cc3C[C@H]12	1.24 µM and 1.14 µM	3.42 µM and 3.63 µM	–	17.3 µM	0.149 µM and 1.33 µM	10.7 µM	1.8 µM and 1.69 µM	6.73 µM	0.463 µM and 0.707 µM	9.79 µM and 11.9 µM	0.00279 µM	–	0.00679 µM	6.38 µM and 2.2 µM	0.0308 µM	1.13 µM and 1.12 µM
Nc1nc(-c2ccc(Cl)cc2)nc2c1sc(=S)n2-c1ccccc1	7.44 µM	> 100 µM	4.36 µM	18.9 µM	2.94 µM	10.9 µM	6.09 µM	> 100 µM	5.4 µM	> 100 µM	2.51 µM	6.19 µM	1.73 µM	3.72 µM	4.32 µM	22.6 µM
Cc1ccc(Cl)cc1-n1c(C)nc2c(cnn2-c2ccnc3c(C(F)(F)F)cccc23)c1=O	> 100 µM	> 100 µM	> 100 µM	> 100 µM	> 100 µM	> 100 µM	> 100 µM	> 100 µM	> 100 µM	> 100 µM	> 100 µM	> 100 µM	> 100 µM	> 100 µM	> 100 µM	> 100 µM
COc1cc(-c2ncn(/C=C\c3nnco3)n2)cc(C(F)(F)F)c1	0.0675 µM	> 24.7 µM	0.416 µM	> 100 µM	0.153 µM	13.5 µM	0.191 µM	50.8 µM	0.705 µM	> 39.3 µM	0.0307 µM	0.198 µM	0.0863 µM	4.73 µM	0.354 µM	13.8 µM
C=CCN(CC=C)C(=O)[C@H](CC)[C@@H]1CC[C@@H](C)[C@@H]([C@H](C)[C@@H](O)[C@@H](C)C(=O)[C@H](CC)C2O[C@]3(C=C[C@@H](O)[C@]4(CC[C@@](C)([C@H]5CC[C@](O)(CC)[C@H](C)O5)O4)O3)[C@H](C)C[C@@H]2C)O1 (stereo not given in full)	2.56 µM	6.23 µM	2.46 µM	5.61 µM	2.81 µM	10.1 µM	3.12 µM	16.1 µM	1.87 µM	3.65 µM	1.57 µM	3.47 µM	1.84 µM	10.5 µM	1.66 µM	4.09 µM
COCCOCCOCCOCCOC(=O)OC[n+]1ccc(NC(=NCCCCCCOc2ccc(Cl)cc2)NC#N)cc1	0.231 µM	15.5 µM	0.0616 µM	18.2 µM	< 0.01 µM	11.8 µM	0.0369 µM	18.2 µM	< 0.0377 µM	17.3 µM	7.44 µM	22.3 µM	14.1 µM	27.9 µM	9.97 µM	22.2 µM
